Results taken from patent publication US10295529B2, “Feline bitter taste receptors and methods” (Applied Food Biotechnology, Inc., priority 2013, dated 2019).

What was measured:
Format in all cases: cell-based, feline
fTAS2R38 [1] = test: Fluo-4AM calcium assay, stable Gα16-gustducin 44/TAS2R38 cell line
Source text: Fluo-4AM is a fluorescent indicator of intracellular calcium dynamics (change in concentration) and allows monitoring changes in the calcium concentration, particularly an increase in response to receptor activation occurring after agonist exposure.

fTAS2R38 [2] = test: Fluo-4AM calcium assay, cells transiently expressing fTAS2R38 with Gα16gust44
Protocol: (§1) Cell lines that transiently express a desired TAS2R disclosed herein are generated by transfecting the appropriate expression vector, e.g., pcDNA3.1D-FLAGV5His-TAS2R38, constructed as described above in Ex. 2A into cells of a eukaryotic cell line (e.g., ATCC #CRL-11268 or Life Technologies, Cat# R700-07).
(§2) On day 0, 60,000 cells per well are plated on poly lysine coated, black 96 well plates with clear bottoms (Costar). The following day the cells are transfected with 150 ng TAS2R38 expression vector, e.g., pcDNA3.1D-FLAGV5His (Invitrogen) along with 45 ng of Gα16 chimera containing the last 44 amino acids of rat gustducin (Gα16gust44) with 0.5 ul Lipofectamine 2000 (Invitrogen) per well. Cells are then incubated 22-44 hours at 37° C. 5% CO2.
(§3) The expression of fTAS2R38 is evaluated by testing for the presence of a functional response to a known hTAS2R38 ligand (e.g., PTC), determined via automated calcium imaging using a Fluo-4AM (Life Technologies Corporation) Calcium Assay. Fluo-4AM is a fluorescent indicator of intracellular calcium dynamics (change in concentration) and allows monitoring changes in the calcium concentration, particularly an increase in response to receptor activation occurring after agonist exposure.
(§4) Testing for a functional response of fTAS2R38 to the known hTAS2R38 ligands, PTC and PROP, and of fTAS2R43 to the known hTAS2R43 ligands, aloin, denatonium and saccharine), was determined via automated calcium imaging using the Fluo-4AM (Life Technologies Corporation) Calcium Assay.

fTAS2R43 = test: Fluo-4AM calcium assay, cells transiently expressing fTAS2R43 with Gα16gust44
Protocol: as §1, §2, §3
Generation of cell lines transiently expressing the other fTAS2Rs disclosed herein is analogous.
as §4

CCCc1cc(=O)[nH]c(=S)[nH]1 [PROP, 6-n-propylthiouracil]
activation of cell line (fTAS2R38 [1]; 30 μm PROP): not activated | stimulation of receptor (fTAS2R38 [2]; 30 μM PROP, transient expression): not stimulated

NC(=S)Nc1ccccc1 [PTC, phenylthiocarbamide]
activation over baseline (fTAS2R38 [1]; 100 μM PTC): 90% | activation over baseline (fTAS2R38 [2]; 100 μM PTC, transient expression): 81%

CCCN(CCC)S(=O)(=O)c1ccc(C(=O)O)cc1 [probenecid, p-(dipropylsulfamoyl)benzoic acid]
inhibition of the response to aloin (fTAS2R43; 1 mM probenecid, response of fTAS2R43 to aloin): inhibited | inhibition of the response to denatonium (fTAS2R43; 1 mM probenecid, response of fTAS2R43 to denatonium): inhibited | inhibition of the response to PTC (fTAS2R38 [2]; 1 mM probenecid, response of fTAS2R38 to PTC): inhibited

O=C1NS(=O)(=O)c2ccccc21 [saccharin]
stimulation of receptor (fTAS2R43; 6.7 mM saccharin, transient expression): not stimulated
